Results from paper PMC11879040, “Advancing systemic toxicity risk assessment: Evaluation of a NAM-based toolbox approach” (Toxicological Sciences, 2024).
Where two headings read alike, the source gives them in different places. Peptide text beside a SMILES is read from it.

Legend:
[1] = system: Potassium Voltage-Gated Channel Kv non-selective, KCNQ1 (r); test: IPP KCNQ1 binding (antagonist radioligand); set-up: species or system rat; conditions: control α-dendrotoxin
[2] = system: Gamma-aminobutyric acid receptor subunit alpha-1 BZD site, GABRA1A (r); assay type: binding, rat; conditions: control diazepam
[3] = system: Sodium channel protein type 5 subunit alpha (site 2), SCN5A (r); assay type: binding, rat; conditions: control veratridine
[4] = target: T1, Adenosine receptor A2a, ADORA2A (h) (Homo sapiens, UniProt P29274); test: IPP ADORA2A binding (agonist radioligand); conditions: control NECA
T1 construct: purchased Eurofins Cerep (SafetyScreen44-based IPP panel)
T1 sequence (P29274 whole entry): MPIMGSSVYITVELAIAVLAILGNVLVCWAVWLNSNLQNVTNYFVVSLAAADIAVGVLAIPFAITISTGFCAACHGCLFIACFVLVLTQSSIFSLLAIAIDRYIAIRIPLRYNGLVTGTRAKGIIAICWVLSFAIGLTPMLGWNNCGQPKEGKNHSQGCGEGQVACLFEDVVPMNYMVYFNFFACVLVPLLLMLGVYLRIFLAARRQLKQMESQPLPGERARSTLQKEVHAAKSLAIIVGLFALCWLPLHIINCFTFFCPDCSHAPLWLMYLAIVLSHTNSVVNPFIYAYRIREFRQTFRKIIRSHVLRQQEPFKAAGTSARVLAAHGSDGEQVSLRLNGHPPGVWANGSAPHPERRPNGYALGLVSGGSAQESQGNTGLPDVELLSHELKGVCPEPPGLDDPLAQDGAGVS

[5] = target: T2, Estrogen receptor, ER1 (h) (Homo sapiens, UniProt P03372); test: IPP ER1 coactivator recruitment (agonist); assay type: biochemical; conditions: estriol
T2 construct: purchased Eurofins Cerep (SafetyScreen44-based IPP panel)
T2 sequence (P03372 1-595): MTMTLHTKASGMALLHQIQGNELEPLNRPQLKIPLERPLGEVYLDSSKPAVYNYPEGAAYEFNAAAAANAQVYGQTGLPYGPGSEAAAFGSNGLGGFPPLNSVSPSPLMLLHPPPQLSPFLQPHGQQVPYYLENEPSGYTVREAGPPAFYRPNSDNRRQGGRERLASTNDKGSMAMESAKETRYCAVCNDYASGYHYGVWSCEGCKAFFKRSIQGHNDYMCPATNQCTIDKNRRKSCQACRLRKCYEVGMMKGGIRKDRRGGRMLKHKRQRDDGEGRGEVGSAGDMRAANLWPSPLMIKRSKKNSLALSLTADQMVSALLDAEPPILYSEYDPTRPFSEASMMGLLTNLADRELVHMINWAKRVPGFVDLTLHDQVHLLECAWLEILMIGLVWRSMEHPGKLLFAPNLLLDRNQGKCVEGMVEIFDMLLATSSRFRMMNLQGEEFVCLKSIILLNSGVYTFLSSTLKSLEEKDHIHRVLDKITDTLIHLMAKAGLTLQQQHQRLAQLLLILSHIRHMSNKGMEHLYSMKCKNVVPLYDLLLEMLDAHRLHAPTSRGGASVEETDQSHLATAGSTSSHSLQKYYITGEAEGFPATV

[6] = target: T2, Estrogen receptor, ER1 (h); test: IPP ER1 coactivator recruitment (antagonist); assay type: biochemical; conditions: estriol
[7] = system: Thyroid hormone receptor alpha, THRA (h); test: IPP THRA coactivator recruitment (agonist); assay type: biochemical, human; conditions: agonist, T3
[8] = system: Tubulin (r); test: IPP Tubulin binding; set-up: species or system rat; conditions: ligand/control Colchicine
[9] = system: HepG2 cells; test: Cell stress panel (CSP), 24 h, 8 concentrations, BIFROST global PoD; assay type: cell-based; conditions: for pod_cell_stress PoD: HepG2, cell stress panel PoD
Procedure: Compounds were tested using the previously developed cell stress panel ([Hatherell et al. 2020]) and the expanded biomarker panel outlined in Middleton et al. HepG2 cells were treated with all compounds for 24 h across 8 concentrations prior to biomarker analysis. The same plate layout and number of replicates (3 biological and 2 technical) were used as previously for each assay within the panel.

[10] = system: HepG2 cells; test: High-throughput transcriptomics (HTTr, TempO-Seq), HepG2, 24 h; assay type: cell-based, human; conditions: HepG2; for pod_httr_bifrost PoD: HTTr BIFROST PoD; for podl_path_minbmd PoD: HTTr minimum pathway BMD(L)
Procedure: (§1) HepG2, HepaRG, and MCF7 cells were treated with each compound for 24 h across a dose range of 7 concentrations and lysed using TempO-Seq lysis buffer (BioSpyder Technologies, proprietary kit, see [Middleton et al. 2022] for method details). Sequencing was performed using TempO-Seq (BioClavis) version 2 of the human whole transcriptome panel and analyzed as described previously in Middleton et al.

[11] = system: HepaRG cells; test: High-throughput transcriptomics (HTTr, TempO-Seq), HepaRG, 24 h; assay type: cell-based, human; conditions: HepaRG; for pod_httr_bifrost PoD: HTTr BIFROST PoD; for podl_path_minbmd PoD: HTTr minimum pathway BMD(L)
Procedure: as §1

[12] = system: MCF7 cells; test: High-throughput transcriptomics (HTTr, TempO-Seq), MCF7, 24 h; assay type: cell-based, human; conditions: MCF-7; for pod_httr_bifrost PoD: HTTr BIFROST PoD; for podl_path_minbmd PoD: HTTr minimum pathway BMD(L)
Procedure: as §1

[13] = system: Glutamate receptor ionotropic NMDA 1 non-selective, GRIN1 (r); conditions: control CGS 19755
[14] = target: Potassium voltage-gated channel subfamily H member 2 hERG, KCNH2 (h) (Homo sapiens, UniProt Q12809); conditions: [3H] Dofetilide, control Terfenadine
Potassium voltage-gated channel subfamily H member 2 hERG, KCNH2 (h), sequence (Q12809 whole entry): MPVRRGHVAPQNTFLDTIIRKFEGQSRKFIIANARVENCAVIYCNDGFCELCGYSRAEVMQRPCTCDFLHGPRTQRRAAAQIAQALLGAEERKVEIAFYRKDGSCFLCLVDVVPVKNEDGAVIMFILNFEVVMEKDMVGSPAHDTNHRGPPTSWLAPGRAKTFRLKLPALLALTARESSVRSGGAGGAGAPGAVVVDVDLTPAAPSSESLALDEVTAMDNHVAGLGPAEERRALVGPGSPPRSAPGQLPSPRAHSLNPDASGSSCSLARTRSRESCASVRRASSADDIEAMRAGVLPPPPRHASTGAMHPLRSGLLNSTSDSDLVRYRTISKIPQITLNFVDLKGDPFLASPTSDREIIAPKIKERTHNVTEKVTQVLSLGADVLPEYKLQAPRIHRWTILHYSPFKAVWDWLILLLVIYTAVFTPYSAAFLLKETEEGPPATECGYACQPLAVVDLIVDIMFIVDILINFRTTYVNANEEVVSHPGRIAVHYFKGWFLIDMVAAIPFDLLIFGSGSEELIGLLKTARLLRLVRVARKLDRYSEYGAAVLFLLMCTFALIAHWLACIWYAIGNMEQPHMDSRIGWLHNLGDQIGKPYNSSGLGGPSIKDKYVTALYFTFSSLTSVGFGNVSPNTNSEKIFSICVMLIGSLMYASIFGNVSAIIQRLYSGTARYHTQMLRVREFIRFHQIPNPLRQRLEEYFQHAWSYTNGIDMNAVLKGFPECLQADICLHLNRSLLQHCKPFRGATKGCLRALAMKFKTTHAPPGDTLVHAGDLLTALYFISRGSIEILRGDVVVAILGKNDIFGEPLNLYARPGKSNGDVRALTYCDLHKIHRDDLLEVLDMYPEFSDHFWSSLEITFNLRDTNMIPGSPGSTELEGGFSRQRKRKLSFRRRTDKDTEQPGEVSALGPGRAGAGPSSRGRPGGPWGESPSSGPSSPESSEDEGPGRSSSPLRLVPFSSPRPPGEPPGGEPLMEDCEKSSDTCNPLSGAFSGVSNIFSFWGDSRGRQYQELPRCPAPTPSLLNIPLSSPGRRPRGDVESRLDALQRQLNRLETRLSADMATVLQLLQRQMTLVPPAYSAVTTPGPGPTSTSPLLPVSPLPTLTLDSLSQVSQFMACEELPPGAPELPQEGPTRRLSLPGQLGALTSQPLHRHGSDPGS

[15] = system: rat; conditions: rat, cited from earlier work; for PoD (NOAEL): ref ToxRefDB/Paul-Friedman et al. (2020)/regulatory opinions
[16] = PBK level L2; taken or scaled from references (median where several); ref [6],[7],[10],[19]; cited from earlier work
[17] = target: T3, Pregnane X receptor PXR, NR1I2 (h) (Homo sapiens, UniProt O75469); test: IPP PXR coactivator recruitment (agonist); conditions: T0901317 for control
T3 sequence (O75469 1-434): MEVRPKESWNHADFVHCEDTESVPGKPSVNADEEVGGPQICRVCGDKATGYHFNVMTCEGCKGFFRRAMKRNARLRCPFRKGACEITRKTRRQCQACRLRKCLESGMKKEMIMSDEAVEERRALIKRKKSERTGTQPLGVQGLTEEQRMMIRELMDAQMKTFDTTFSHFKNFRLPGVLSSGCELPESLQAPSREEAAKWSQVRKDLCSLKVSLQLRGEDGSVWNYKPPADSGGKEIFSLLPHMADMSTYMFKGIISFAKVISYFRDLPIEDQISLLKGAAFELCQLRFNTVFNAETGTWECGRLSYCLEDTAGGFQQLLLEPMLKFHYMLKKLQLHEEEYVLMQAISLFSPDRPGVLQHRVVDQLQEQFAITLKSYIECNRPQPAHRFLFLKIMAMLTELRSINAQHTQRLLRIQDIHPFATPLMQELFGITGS

[18] = target: T3, Pregnane X receptor PXR, NR1I2 (h); test: IPP PXR coactivator recruitment (antagonist); conditions: ligand T0901317
[19] = cited from earlier work
[20] = PBK level L2; single value or median; ref [2],[4],[6],[7],[8],[10],[11],[15],[18],[27],[34]; cited from earlier work
[21] = Assignment of risk classifications to benchmark chemical-exposure scenarios; conditions: for risk: from table S1
[22] = target: Voltage-dependent L-type Ca2+ channel (dihydropyridine site), CACNA1C (r) (Rattus norvegicus, UniProt P22002); assay type: binding; conditions: IPP screening at 10 uM; control nitrendipine
Voltage-dependent L-type Ca2+ channel (dihydropyridine site), CACNA1C (r), sequence (P22002 whole entry): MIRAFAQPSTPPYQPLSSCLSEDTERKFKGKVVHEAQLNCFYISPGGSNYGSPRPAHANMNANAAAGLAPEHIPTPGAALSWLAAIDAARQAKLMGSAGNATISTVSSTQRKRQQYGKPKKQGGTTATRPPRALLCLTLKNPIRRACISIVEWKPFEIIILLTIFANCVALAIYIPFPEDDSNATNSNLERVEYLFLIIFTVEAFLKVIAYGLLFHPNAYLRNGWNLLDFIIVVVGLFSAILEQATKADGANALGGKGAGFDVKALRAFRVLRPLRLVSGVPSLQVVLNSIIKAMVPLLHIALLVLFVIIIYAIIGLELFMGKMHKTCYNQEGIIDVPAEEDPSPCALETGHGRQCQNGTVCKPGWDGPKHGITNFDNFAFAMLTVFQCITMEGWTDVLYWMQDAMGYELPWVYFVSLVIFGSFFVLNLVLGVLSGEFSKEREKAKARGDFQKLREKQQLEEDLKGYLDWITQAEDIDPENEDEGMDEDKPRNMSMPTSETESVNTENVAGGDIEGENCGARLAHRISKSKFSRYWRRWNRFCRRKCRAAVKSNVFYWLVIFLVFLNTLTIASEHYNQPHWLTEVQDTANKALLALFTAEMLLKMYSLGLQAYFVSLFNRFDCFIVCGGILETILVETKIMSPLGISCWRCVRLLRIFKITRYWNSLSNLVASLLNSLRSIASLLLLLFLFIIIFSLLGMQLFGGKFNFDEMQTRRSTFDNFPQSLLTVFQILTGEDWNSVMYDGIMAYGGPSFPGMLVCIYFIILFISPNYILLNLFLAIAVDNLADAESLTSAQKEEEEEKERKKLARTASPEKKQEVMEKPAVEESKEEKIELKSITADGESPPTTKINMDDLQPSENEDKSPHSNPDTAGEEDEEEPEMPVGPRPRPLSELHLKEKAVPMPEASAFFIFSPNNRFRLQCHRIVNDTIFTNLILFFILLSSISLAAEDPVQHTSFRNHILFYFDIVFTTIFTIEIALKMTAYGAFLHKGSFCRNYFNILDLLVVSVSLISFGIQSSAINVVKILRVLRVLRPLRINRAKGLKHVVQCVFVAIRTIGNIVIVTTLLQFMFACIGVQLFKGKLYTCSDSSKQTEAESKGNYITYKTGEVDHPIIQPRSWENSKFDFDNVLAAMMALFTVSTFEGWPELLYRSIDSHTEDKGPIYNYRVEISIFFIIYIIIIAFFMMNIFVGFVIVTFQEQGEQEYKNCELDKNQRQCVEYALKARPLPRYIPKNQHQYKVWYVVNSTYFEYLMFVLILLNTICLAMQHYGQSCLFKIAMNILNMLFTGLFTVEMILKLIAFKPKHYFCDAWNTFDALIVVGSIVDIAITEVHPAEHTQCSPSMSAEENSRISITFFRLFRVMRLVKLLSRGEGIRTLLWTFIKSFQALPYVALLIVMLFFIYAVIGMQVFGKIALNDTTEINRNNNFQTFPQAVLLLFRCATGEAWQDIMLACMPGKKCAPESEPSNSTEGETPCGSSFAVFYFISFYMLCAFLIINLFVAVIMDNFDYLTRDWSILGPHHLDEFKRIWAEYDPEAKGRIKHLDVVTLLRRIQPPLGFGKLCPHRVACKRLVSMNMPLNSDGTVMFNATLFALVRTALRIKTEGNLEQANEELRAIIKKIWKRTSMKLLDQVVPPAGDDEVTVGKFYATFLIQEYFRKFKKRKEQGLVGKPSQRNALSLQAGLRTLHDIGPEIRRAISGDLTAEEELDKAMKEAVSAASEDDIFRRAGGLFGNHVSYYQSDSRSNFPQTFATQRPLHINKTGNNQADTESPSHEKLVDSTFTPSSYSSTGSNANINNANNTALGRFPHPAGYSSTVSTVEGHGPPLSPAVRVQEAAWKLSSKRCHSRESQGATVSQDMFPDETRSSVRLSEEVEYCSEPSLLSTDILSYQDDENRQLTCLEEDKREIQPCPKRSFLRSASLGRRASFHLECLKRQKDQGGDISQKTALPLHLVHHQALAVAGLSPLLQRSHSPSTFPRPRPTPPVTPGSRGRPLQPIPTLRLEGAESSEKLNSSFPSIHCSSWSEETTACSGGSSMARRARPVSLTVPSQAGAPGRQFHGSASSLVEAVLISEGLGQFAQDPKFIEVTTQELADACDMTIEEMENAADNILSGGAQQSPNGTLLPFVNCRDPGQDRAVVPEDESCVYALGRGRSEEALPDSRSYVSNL

[23] = system: 63 targets with known safety liabilities; test: In vitro pharmacological profiling (IPP) panel, screening at 10 or 100 µM and dose response, minimum IC50/AC50; assay type: biochemical; conditions: lowest AC50 across IPP panel (systemic targets); cell_type -; read-out: ipp_lowest_ac50_systemic PoD
[24] = PBK level L2; at the given pH; single value or median; ref [1],[4],[5],[10],[11],[17],[26]; cited from earlier work
[25] = 100 uM, * denotes assay interference (2-Amino-6-chloro-4-nitrophenol, HC Red 3)

Structure (SMILES): COC(=O)[C@H](Cc1ccccc1)NC(=O)[C@@H](N)CC(=O)O [Aspartame, Methyl L-alpha-aspartyl-L-phenylalaninate] (H-Asp-Phe-OMe)
- Specific binding ([1]; IPP screening at 100 uM): 2.5%
- Specific binding ([2]; IPP screening at 100 uM): 7.4%
- Specific binding ([3]; IPP screening at 100 uM): 3.9%
- Specific binding ([4]; IPP screening at 100 uM): 0.3%
- IPP screening %, Coactivator recruitment [5, 25]: 0.0%
- IPP screening %, Coactivator recruitment [6, 25]: -1.0%
- IPP screening %, Coactivator recruitment [7, 25]: 2.0%
- IPP screening %, Specific binding ([8]; 100 uM): -13.0%
- Bioactivity Observations: cell stress panel [9]: the CSP shows some small effects on PGC1alpha/Nrf2 and the ECAR (seahorse)
- pod_cell_stress PoD [9]: 536.875 µM
- pod_httr_bifrost PoD [10]: 1509.3 µM
- podl_path_minbmd PoD [10]: 2500 µM
- pod_httr_bifrost PoD [11]: 853.753 µM
- podl_path_minbmd PoD [11]: 2500 µM
- pod_httr_bifrost PoD [12]: 423.587 µM
- podl_path_minbmd PoD [12]: 2500 µM
- Specific binding ([13]; IPP screening at 100 uM): 24.0%
- IPP screening %, Specific binding ([14]; 100 uM): 1.5%
- PoD (NOAEL) ([15]; 38 days, developmental neurotoxicity study): 1614 mg/kg bw/day
- Intrinsic Liver Clearance [16]: 400.2 L/h
- IPP screening %, Coactivator recruitment ([17]; 100 uM): 15.7%
- IPP screening %, Coactivator recruitment ([18]; 100 uM): -11.9%

Structure (SMILES): CCCCOC(=O)c1ccc(O)cc1 [Butylparaben, Butyl 4-hydroxybenzoate]
- Specific binding ([1]; IPP screening at 10 uM): 1.5%
- Specific binding ([2]; IPP screening at 10 uM): 12.4%
- Specific binding ([3]; IPP screening at 10 uM): 23.9%
- Specific binding ([4]; IPP screening at 10 uM): 5.4%
- IPP screening %, Coactivator recruitment ([7]; 10 uM): 2.0%
- IPP screening %, Specific binding ([8]; 10 uM): 8.0%
- pod_cell_stress PoD [9]: 4.378 µM
- Specific binding ([13]; IPP screening at 10 uM): -5.2%
- IPP screening %, Specific binding ([14]; 10 uM): -13.5%
- BMDL5 ([19]; ref SCCS): 24 mg/kg/day
- Real NOAEL ([19]; ref not given): 1000 mg/kg/day
- alternative lowest PoD ([19]; studies stated to be flawed, ref Oishi): 14.4 mg/kg/day
- PoD (LOAEL) ([15]; subchronic - 8 weeks, ref Oishi): 10 mg/kg bw/day
- Fup [20]: 5.64%
- Intrinsic Liver Clearance [16]: 799.2 L/h
- IPP screening %, Coactivator recruitment ([17]; 10 uM): 3.1%
- IPP screening %, Coactivator recruitment ([18]; 10 uM): 6.9%
- Risk Classification ([21]; Dermal […] in Body Lotion): Low risk
- risk ([21]; Dermal, […] (regulation says limit is […] as acid), Body lotion, Exp1): 0

Structure (SMILES): O=[N+]([O-])c1cc(C(F)(F)F)c(Cl)c([N+](=O)[O-])c1Nc1ncc(C(F)(F)F)cc1Cl [Fluazinam, 3-Chloro-N-[3-chloro-2,6-dinitro-4-(trifluoromethyl)phenyl]-5-(trifluoromethyl)pyridin-2-amine]
- Specific binding [22]: 99.9%
- Specific binding ([1]; IPP screening at 10 uM): -3.7%
- Specific binding ([2]; IPP screening at 10 uM): -31.4%
- Specific binding ([3]; IPP screening at 10 uM): 19.6%
- Specific binding ([4]; IPP screening at 10 uM): 14.9%
- IPP screening %, Coactivator recruitment ([5]; 10 uM): -4.0%
- IPP screening %, Coactivator recruitment ([6]; 10 uM): 46.0%
- IPP screening %, Coactivator recruitment ([7]; 10 uM): 2.0%
- IPP screening %, Specific binding ([8]; 10 uM): 9.0%
- Bioactivity Observations: cell stress panel [9]: The seahorse assays within the cell stress panel do report activity and with a very large magnitude of change in the OCR biomarker
- pod_cell_stress PoD [9]: 0.6023 µM
- pod_httr_bifrost PoD [10]: 0.03634 µM
- podl_path_minbmd PoD [10]: 0.699 µM
- pod_httr_bifrost PoD [11]: 0.0222 µM
- podl_path_minbmd PoD [11]: 0.4338 µM
- pod_httr_bifrost PoD [12]: 0.1303 µM
- podl_path_minbmd PoD [12]: 0.4999 µM
- AC50 [23]: 430 nM
- Specific binding ([13]; IPP screening at 10 uM): 1.2%
- IPP screening %, Specific binding ([14]; 10 uM): 16.2%
- PoD (NOAEL) ([15]; 104 weeks): 0.38 mg/kg bw/day
- Aqueous Solubility [24]: 0.95 µg/mL
- IPP screening %, Coactivator recruitment ([17]; 10 uM): -8.8%
- IPP screening %, Coactivator recruitment ([18]; 10 uM): 111.2%
- Risk Classification ([21]; Oral 0.01 mg/kg bw/day): Low risk
- Risk Classification ([21]; Oral 32% of 0.01 mg/kg bw/day): Low risk
- risk ([21]; Oral, 32% ADI 0.01 mg/kg bw/day, Food residue, Exp1): 0
- risk ([21]; Oral, ADI 0.01 mg/kg bw/day, Food residue, Exp2): 0
